Reference: patent US7550425B2, “Diuretic peptide conjugates” (Zealand Pharma A/S, priority 2000, dated 2009)
Peptide text beside a SMILES is read from it.

What was measured:
hORL1 receptor [1] = target: T1, hORL1 receptor (Homo sapiens, UniProt P41146); test: Binding to human ORL1 receptor expressed in CHO cells; design: expressed in transfected cells; host or cells: CHO
hORL1 receptor [2] = target: T1, hORL1 receptor; test: Efficacy: inhibition of forskolin-induced cAMP formation, hORL1 in CHO cells; type: cell-based; design: expressed in transfected cells; host or cells: CHO
Text: The ORL1 receptor is negatively coupled to cAMP and thus the effect of ORL1 agonists are detected as an inhibition of forskolin-incuced cAMP formation. Six compounds of the invention have been tested for efficacy on hORL1 receptor expressed in CHO cells.

T1 sequence (P41146 whole entry): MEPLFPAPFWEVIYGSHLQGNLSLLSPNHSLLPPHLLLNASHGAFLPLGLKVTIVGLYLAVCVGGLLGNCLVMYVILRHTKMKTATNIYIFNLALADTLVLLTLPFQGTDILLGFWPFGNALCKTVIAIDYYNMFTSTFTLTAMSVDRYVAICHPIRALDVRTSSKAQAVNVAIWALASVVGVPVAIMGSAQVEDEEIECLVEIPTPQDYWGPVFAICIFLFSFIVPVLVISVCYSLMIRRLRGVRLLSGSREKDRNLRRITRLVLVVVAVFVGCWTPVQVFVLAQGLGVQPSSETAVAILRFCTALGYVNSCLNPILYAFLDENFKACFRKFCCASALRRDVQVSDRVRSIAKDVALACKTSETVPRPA

## CC(=O)N[C@H](CCCNC(=N)N)C(=O)N[C@H](Cc1ccc(O)cc1)C(=O)N[C@H](Cc1ccc(O)cc1)C(=O)N[C@H](CCCNC(=N)N)C(=O)N[C@H](Cc1c[nH]c2ccccc12)C(=O)N[C@H](CCCCN)C(=O)N[C@H](CCCCN)C(=O)N[C@H](CCCCN)C(=O)N[C@H](CCCCN)C(=O)N[C@H](CCCCN)C(=O)N[C@H](CCCCN)C(=O)N[C@H](CCCCN)C(N)=O [Compound 8, Ac-RYYRWKKKKKKK-NH2 (all D)] (HELM PEPTIDE1{[ac].[dR].[dY].[dY].[dR].[dW].[dK].[dK].[dK].[dK].[dK].[dK].[dK].[am]}$$$$V2.0)
hORL1 receptor [1]
  IC50: 78 nM
hORL1 receptor [2]
  EC50: 59 nM
